Results reported in publication PMC10385579, “Design, Synthesis, and Biological Evaluation of Indole-2-carboxamides as Potential Multi-Target Antiproliferative Agents” (Pharmaceuticals, 2023).
Read-outs that look alike come from different tables or passages of the source.

Key:
EGFR [1] = molecular target: T1, EGFR (Homo sapiens, UniProt P00533); experiment: EGFR inhibitory assay
[2] = tested on: four human cancer cell lines (A-549, MCF-7, Panc-1, HT-29); experiment: Antiproliferative assay, average over the four cancer cell lines (GI50); assay type: cell-based; settings: average of the four cancer cell lines
Protocol: See Supplementary Materials.
(§1) 4.2.1.2. Assay for antiproliferative effect
To explore the antiproliferative potential of compounds propidium iodide fluorescence assay was performed using different cell lines such as Panc-1 (pancreas cancer cell line), MCF-7 (breast […]
(§2) To calculate the total nuclear DNA, a fluorescent dye (propidium iodide, PI) is used which can attach to the DNA, thus offering a quick and precise technique. PI cannot pass through the cell membrane and its signal intensity can be considered as directly proportional to quantity of cellular
DNA. Cells whose cell membranes are damaged or have changed permeability are counted as dead ones. The assay was performed by seeding the cells of different cell lines at a density of 3000- […]
(§3) The medium was removed; the compounds were added to the plates at 10 μM concentrations (in 0.1% DMSO) in triplicates, followed by incubation for 48h. DMSO (0.1%) was used as control. After incubation, medium was removed followed by the addition of PI (25 μl, 50μg/mL in water/medium) to each well of the plates. At - 80 °C, the plates were allowed to freeze for 24 h, followed by thawing at 25 °C. A fluorometer (Polar-Star BMG Tech) was used to record the readings at excitation and emission wavelengths of 530 and 620 nm for each well. The percentage cytotoxicity of compounds was calculated using […]
Where ATC= Absorbance of treated cells and AC= Absorbance of control. […]
positive control in the assay.

[3] = tested on: colon cancer (HT-29) cell line; experiment: Antiproliferative assay, HT-29; assay type: cell-based; settings: Homo sapiens, read-out: Antiproliferative Activity IC50 ± SEM, HT-29
Protocol: as §1
(§4) To explore the antiproliferative potential of compounds propidium iodide fluorescence assay was performed using different cell lines such as Panc-1 (pancreas cancer cell line), MCF-7 (breast cancer cell line), HT-29 (colon cancer cell line) and A-549 (epithelial cancer cell line), respectively.
as §2
as §3, with “DNA. Cells whose cell membranes are damaged or have changed permeability are counted as dead ones. The assay was performed by seeding the cells of different cell lines at a density of 3000-7500 cells/well (in200μl medium) in culture plates followed by incubation for 24h at 37 °C in humidified 5%CO2/95% air atmospheric conditions. The medium” for “The medium”
(§5) Where ATC= Absorbance of treated cells and AC= Absorbance of control. Erlotinib was used as positive control in the assay.

[4] = tested on: breast cancer (MCF-7) cell line; experiment: Antiproliferative assay, MCF-7; assay type: cell-based; settings: Homo sapiens, MCF7; read-out: Antiproliferative Activity IC50 ± SEM, MCF-7
Protocol: as §1, §4, §2
as §3, with “DNA. Cells whose cell membranes are damaged or have changed permeability are counted as dead ones. The assay was performed by seeding the cells of different cell lines at a density of 3000-7500 cells/well (in200μl medium) in culture plates followed by incubation for 24h at 37 °C in humidified 5%CO2/95% air atmospheric conditions. The medium” for “The medium”
as §5

[5] = tested on: human epithelial (A-549) cancer cell line; experiment: Antiproliferative assay, A-549; assay type: cell-based; settings: A549, read-out: Antiproliferative Activity IC50 ± SEM, A-549
Protocol: as §1, §4, §2
as §3, with “DNA. Cells whose cell membranes are damaged or have changed permeability are counted as dead ones. The assay was performed by seeding the cells of different cell lines at a density of 3000-7500 cells/well (in200μl medium) in culture plates followed by incubation for 24h at 37 °C in humidified 5%CO2/95% air atmospheric conditions. The medium” for “The medium”
as §5

BRAF^V600E [6] = molecular target: BRAF^V600E (Mus musculus, UniProt P28028, V585E); experiment: BRAF^V600E inhibitory assay
Protocol: BRAFV600E inhibitory assay
V600E mutant BRAF kinase assay was performed to investigate the activity of tested compounds against BRAF. Mouse full-length GST-tagged BRAFV600E (7.5 ng, Invitrogen, PV3849) was pre-incubated with drug (1 µL) and assay dilution buffer (4 µL) for 60 min at 25 °C. In assay dilution buffer, a solution (5 µL) containing MgCl2 (30 mM), ATP (200 µM), recombinant human full length (200 ng) and N-terminal His-tagged MEK1 (Invitrogen) was added to start the assay, subsequent to incubation for 25 min at 25 °C. The assay was stopped using 5X protein denaturing buffer (LDS) solution (5 µL). To further denature the protein, heat (70° C) was applied for 5 min.
10 µL of each reaction was loaded into the precast plates and electrophoresis was allowed to proceed. After completion of electrophoresis, the front part of the precast gel plate (holding hot ATP) was cut and afterwards cast-off. The dried gel was developed using a phosphor screen.

VEGFR-2 [7] = molecular target: T2, VEGFR-2 (Homo sapiens, UniProt P35968); experiment: VEGFR-2 inhibitory assay
Protocol: Prepare all the solutions using autoclaved, deionized water and analytical grade reagents.
and store all the reagents at room temperature (unless indicated otherwise).
solution, add 5 mL ultra-pure water; 1×Kinase Assay Buffer: add 25 mL HEPES solution (1 M),
water, adjust pH to 7.5 and constant volume to 500 mL using ultrapure water; 4×Stop solution (40
mM): Mix 0.8 mL of the foregoing EDTA solution, 1 mL 10×Detection Buffer and 8.2 mL ultra-
pure water; 1×Detection Buffer: Mix 1 mL 10×Detection Buffer with 9 mL water; 4×VEGFR
μM) was added to 624 μL 1×Kinase Assay Buffer and mixed; 4×ULight™-labeled JAK1
concentration 5 μM) was added to 576 μL 1×Kinase Assay Buffer and mixed; 4×ATP Solution
2×substrate/ATP Mix: 560 μL foregoing 4×ULight™-labeled JAK1 and 560 μL 4×ATP solution
and mixed (prepared before use). The assays used an ULight-labeled peptide substrate and a
Europium-W1024-labeled antiphosphotyrosine antibody. The VEGFR-2 was purchased from
Carna Biosciences, Inc. (New York, USA). The 384-well plates were obtained from PerkinElmer.
5 μL 2×VEGFR-2 kinase solution (0.5 nM)
was added to 384-well plates homogeneous mixing and pre-reaction at room temperature for 30 min. Next, 2.5 μL 4×Ultra ULightTM-JAK-1(Tyr1023) Peptide (200 nM)/ATP (40 μM) was added to the corresponding wells of a 384-well plate. Negative control: 2.5 μL/well 4×substrate/ATP mixture and 7.5 μL 1×kinase assay buffer in 384-well plate well. Positive control:
μL/well 2×VEGFR-2 kinase solution was added to the 384-well plate, The final concentration of DMSO in the mixing system was 4%. After incubation at room temperature and dark for 60 min, 5 μL 4×stop solution was added to corresponding wells to react for 5 min and then 5 μL 4×detection mix was added to the corresponding wells of a 384-well plate. The mixture was centrifugally mixed and stayed for 60 min at room temperature for color development. The plate was read using a Envision plate reader. The inhibition rate (%) = (positive well reading-compound well reading)/(positive well reading-negative well reading)×100. The corresponding IC50 values were calculated using GraphPad Prism 5.0.

caspase-3 = experiment: Caspase 3 assay in A-549 cells; assay type: cell-based, human; settings: for Caspase-3 Conc: untreated control 66 pg/mL; for Caspase-3 Fold Change: vs untreated control
Protocol: Caspases play a crucial function in the induction and completion of apoptosis. Caspase-3 is an essential caspase that cleaves different proteins in cells, resulting in apoptosis. […]
4.2.5. Caspase-3 activation assay
Allow all reagents to reach room temperature before use. Gently mix all liquid reagents prior to use. Determine the number of 8-well strips needed for the assay. Insert these in the frame(s) for current use. Add 100 μl of the Standard Diluent Buffer to the zero standard wells. Well(s) reserved for chromogen blank should be left empty. Add 100 μl of standards and controls or diluted samples to the appropriate microtiter wells. The sample dilution chosen should be optimized for each experimental system. Tap gently on side of plate to mix. Cover wells with plate cover and incubate for 2 hours at room temperature. Thoroughly aspirate or decant solution from wells and discard the liquid, Wash wells 4 times. Pipette 100 μl of Caspase-3 (Active) Detection Antibody solution into each well except the chromogen blank(s). Tap gently on the side of the plate to mix. Cover plate with plate cover and incubate for 1 hour at room temperature. Thoroughly aspirate or decant solution from wells and discard the liquid, Wash wells 4 times. Add 100 μl Anti-Rabbit IgG HRP Working Solution to each well except the chromogen blank(s). Prepare the working dilution as described in Preparing IgG HRP. Cover wells with the plate cover and incubate for 30 minutes at room temperature. Thoroughly aspirate or decant solution from wells and discard the liquid. Wash wells 4 times. Add 100 μl of Stabilized Chromoge n to each well. The liquid in the wells will begin to turn blue. Incubate for 30 minutes at room temperature and in the dark. The incubation time for chromogen substrate is often determined by the microtiter plate reader used. Many plate readers have the capacity to record a maximum optical density (O.D.) of 2.0. The O.D. values should be monitored, and the substrate reaction stopped before the O.D. of the positive wells exceeds the limits of the instrument. The O.D. values at 450 nm can only be read after the Stop Solution has been added to each well. If using a reader that records only to 2.0 O.D., stopping the assay after […]
Add 100 μl of Stop Solution to each well. Tap side of plate gently to mix. The solution in the wells should change from blue to yellow. Read the absorbance of each well at 450 nm having blanked the plate reader against a chromogen blank composed of 100 μl each of Stabilized Chromogen and Stop Solution. Read the plate within 2 hours after adding the Stop Solution. Use a curve fitting software to generate the standard curve. A four-parameter algorithm provides the best standard curve fit. Read the concentrations for unknown samples and controls from the standard curve. Multiply value(s) obtained for sample(s) by the appropriate dilution factor to correct for the dilution in step 3. Samples producing signals greater than that of the highest standard should be diluted in Standard Diluent Buffer and reanalyzed.

[8] = Cell viability assay (MTT) on MCF-10A; assay type: cell-based; settings: human, MCF-10A mammary gland epithelial cells, MCF-10A cells, four days
Protocol: To assess the viability of compounds IV and Va–i, the human mammary gland epithelial (MCF-10A) cell line was exploited. Compounds IV and Va–i were cultured for four days on MCF-10A cells before being evaluated for vitality using the MTT assay.
To test the viability of the new compounds, the human mammary gland epithelial (MCF-10A) cell line was used. Compounds IV and Va–i were incubated on MCF-10A cells for four days before being tested for viability using the MTT assay. See Supplementary Materials.
4.2. Biological evaluation
4.2.1. Cytotoxic activity using MTT Assay and evaluation of IC50
MTT assay was performed to investigate the effect of the synthesized compounds on mammary epithelial cells (MCF-10A). The cells were propagated in medium consisting of Ham's F-12 medium/ Dulbecco's modified Eagle's medium (DMEM) (1:1) supplemented with 10% foetal calf serum, 2 mM glutamine, insulin (10 μg/mL), hydrocortisone (500 ng/mL) and epidermal growth factor (20 ng/mL). Trypsin ethylenediamine tetra acetic acid (EDTA) was used to passage the cells after every 2-3 days. 96-well flat-bottomed cell culture plates were used to seed the cells at a density of 10^4 cells mL-1. The medium was aspirated from all the wells of culture plates after 24 h followed by the addition of synthesized compounds (in 200 μL medium to yield a final concentration of 0.1% (v/v) dimethyl sulfoxide) into individual wells of the plates. Four wells were designated to a single compound. The plates were allowed to incubate at 37°C for 96 h. Afterwards, the medium was aspirated and 3-[4,5-dimethylthiazol-2-yl]-2,5-diphenyltetrazolium bromide (MTT) (0.4 mg/mL) in medium was added to each well and subsequently incubated for 3 h. The medium was aspirated and 150 μL dimethyl sulfoxide (DMSO) was added to each well. The plates were vortexed followed by the measurement of absorbance at 540 nm on a microplate reader. The results were presented as inhibition (%) of proliferation in contrast to controls comprising 0.1%

[9] = tested on: pancreatic cancer (Panc-1) cell line; experiment: Antiproliferative assay, Panc-1; assay type: cell-based; settings: Homo sapiens, read-out: Antiproliferative Activity IC50 ± SEM, Panc-1
Protocol: as §1, §4, §2
as §3, with “DNA. Cells whose cell membranes are damaged or have changed permeability are counted as dead ones. The assay was performed by seeding the cells of different cell lines at a density of 3000-7500 cells/well (in200μl medium) in culture plates followed by incubation for 24h at 37 °C in humidified 5%CO2/95% air atmospheric conditions. The medium” for “The medium”
as §5

cancer cell lines = tested on: cancer cell lines; set-up: method as in PMID 32920363, PMID 29407956, PMID 36770936, PMID 36015154, PMID 35078049; settings: cited from earlier work
BRAF^V600E [10] = tested on: BRAF^V600E; set-up: method as in PMID 32920363, PMID 29407956, PMID 36770936, PMID 36015154, PMID 35078049; settings: cited from earlier work
CDK2 = tested on: CDK2; set-up: method as in PMID 32920363, PMID 29407956, PMID 36770936, PMID 36015154, PMID 35078049; settings: cited from earlier work
EGFR [11] = molecular target: T1, EGFR; set-up: 645–1186); His6 (N); made in house; host or cells: Sf-9 insect cells (baculovirus; pBlueBacHis2B / pFASTBacHTc; settings: cited from earlier work
VEGFR-2 [12] = molecular target: T2, VEGFR-2; set-up: purchased Carna Biosciences, Inc; settings: cited from earlier work
[13] = four cancer cell lines, read-out: GI50 vs four cancer cell lines

T1 sequence (P00533 669-1210): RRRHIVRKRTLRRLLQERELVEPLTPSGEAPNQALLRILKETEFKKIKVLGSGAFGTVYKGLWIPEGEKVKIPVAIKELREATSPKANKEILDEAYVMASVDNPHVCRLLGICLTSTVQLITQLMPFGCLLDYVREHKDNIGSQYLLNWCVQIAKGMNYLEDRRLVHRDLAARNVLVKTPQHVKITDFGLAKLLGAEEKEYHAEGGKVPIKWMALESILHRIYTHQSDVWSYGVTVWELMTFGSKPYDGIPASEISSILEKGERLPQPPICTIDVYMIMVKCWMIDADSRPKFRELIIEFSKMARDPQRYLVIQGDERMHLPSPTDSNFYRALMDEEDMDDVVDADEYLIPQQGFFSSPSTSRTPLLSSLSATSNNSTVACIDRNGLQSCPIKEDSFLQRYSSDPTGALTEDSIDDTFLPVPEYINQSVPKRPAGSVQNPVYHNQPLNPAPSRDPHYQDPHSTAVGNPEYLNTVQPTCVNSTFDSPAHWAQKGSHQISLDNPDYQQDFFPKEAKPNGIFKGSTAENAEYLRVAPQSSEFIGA
Sequence of BRAF^V600E (Mus musculus, UniProt P28028, V585E) (P28028 whole entry V585E): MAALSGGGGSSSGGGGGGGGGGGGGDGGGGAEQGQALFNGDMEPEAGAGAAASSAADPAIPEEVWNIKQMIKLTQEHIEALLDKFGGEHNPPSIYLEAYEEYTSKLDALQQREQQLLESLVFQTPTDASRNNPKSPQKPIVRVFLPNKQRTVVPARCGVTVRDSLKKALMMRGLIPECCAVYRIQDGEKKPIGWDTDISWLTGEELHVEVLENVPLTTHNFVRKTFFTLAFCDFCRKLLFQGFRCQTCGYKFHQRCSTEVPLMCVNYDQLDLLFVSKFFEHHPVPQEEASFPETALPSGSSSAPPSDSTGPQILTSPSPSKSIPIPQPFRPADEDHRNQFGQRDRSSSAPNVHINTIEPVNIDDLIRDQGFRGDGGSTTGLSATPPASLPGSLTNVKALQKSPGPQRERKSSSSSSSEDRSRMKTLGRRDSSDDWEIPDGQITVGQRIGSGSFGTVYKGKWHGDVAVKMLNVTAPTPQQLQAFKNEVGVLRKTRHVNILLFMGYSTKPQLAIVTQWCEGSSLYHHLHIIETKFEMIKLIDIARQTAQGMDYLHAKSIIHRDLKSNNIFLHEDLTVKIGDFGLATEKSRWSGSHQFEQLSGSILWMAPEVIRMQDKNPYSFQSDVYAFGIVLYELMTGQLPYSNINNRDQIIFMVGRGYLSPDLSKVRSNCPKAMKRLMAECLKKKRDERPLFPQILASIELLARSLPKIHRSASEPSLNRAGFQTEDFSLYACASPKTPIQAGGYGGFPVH
T2 sequence (P35968 20-1356): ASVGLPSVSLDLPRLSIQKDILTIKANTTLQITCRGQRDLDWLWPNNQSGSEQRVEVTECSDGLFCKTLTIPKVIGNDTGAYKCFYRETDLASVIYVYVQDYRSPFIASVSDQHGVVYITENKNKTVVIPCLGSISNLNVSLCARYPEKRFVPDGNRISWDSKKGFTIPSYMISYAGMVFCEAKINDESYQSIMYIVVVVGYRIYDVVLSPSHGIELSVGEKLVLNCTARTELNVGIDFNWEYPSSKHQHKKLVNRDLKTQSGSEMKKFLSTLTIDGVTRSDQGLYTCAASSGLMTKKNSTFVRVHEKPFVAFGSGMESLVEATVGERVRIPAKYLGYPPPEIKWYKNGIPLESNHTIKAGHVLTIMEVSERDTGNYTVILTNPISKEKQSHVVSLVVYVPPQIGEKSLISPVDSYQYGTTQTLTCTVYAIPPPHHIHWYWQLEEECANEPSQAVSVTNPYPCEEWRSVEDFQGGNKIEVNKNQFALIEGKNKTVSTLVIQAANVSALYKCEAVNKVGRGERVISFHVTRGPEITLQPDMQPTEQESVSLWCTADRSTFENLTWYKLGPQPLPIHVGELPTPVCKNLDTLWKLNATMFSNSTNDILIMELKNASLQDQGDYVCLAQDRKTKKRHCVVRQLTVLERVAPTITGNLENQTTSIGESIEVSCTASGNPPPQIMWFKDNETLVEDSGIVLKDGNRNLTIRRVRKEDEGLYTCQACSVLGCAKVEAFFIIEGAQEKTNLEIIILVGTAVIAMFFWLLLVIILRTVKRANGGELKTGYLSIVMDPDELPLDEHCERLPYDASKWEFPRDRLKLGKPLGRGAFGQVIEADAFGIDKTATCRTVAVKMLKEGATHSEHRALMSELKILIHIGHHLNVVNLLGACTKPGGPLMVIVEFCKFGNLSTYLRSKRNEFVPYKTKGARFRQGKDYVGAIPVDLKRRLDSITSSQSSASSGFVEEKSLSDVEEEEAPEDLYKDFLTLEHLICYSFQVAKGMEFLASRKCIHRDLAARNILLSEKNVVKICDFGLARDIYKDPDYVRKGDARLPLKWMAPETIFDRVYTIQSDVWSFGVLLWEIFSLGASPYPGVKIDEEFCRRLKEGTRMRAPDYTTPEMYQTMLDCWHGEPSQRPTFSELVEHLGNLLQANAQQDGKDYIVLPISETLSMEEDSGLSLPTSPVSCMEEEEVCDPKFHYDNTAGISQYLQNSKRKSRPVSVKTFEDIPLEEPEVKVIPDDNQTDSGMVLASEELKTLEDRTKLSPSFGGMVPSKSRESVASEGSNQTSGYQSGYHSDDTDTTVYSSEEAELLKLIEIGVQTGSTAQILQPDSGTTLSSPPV

Row | Compound | melting point [°C] | IC50 (EGFR [1]) [µM] | GI50 [2] [µM] | IC50 [3] [µM] | IC50 [4] [µM] | IC50 [5] [µM] | IC50 (BRAF^V600E [6]) [µM] | IC50 (VEGFR-2 [7]) [µM] | viability at 96 h, 50 µM [8] [%] | IC50 [9] [µM] | GI50 (cancer cell lines; [13]) [µM] | IC50 (BRAF^V600E [10]) [µM] | other results
1 | O=C(NCC(c1ccccc1)c1c(-c2ccccc2)[nH]c2ccccc12)c1[nH]c2ccc(Cl)cc2c1CO (stereo not shown) [Ve, 5-Chloro-3-(hydroxymethyl)-N-(2-phenyl-2-(2-phenyl-1H-indol-3-yl)ethyl)-1H-indole-2-carboxamide] | 132 to 134 | 0.094 ± 0.007 | 0.044 | 0.045 ± 0.004 | 0.046 ± 0.004 | 0.042 ± 0.004 | 0.097 ± 0.008 | 0.0011 ± 8e-05 | 90 | 0.044 ± 0.004 |  |  | Caspase-3 Conc (caspase-3): 462 ± 4 pg/mL; Caspase-3 Fold Change (caspase-3): 7
2 | CCOCc1c2n(c3ccc(Cl)cc13)C(=O)CN(CCc1ccc(N3CCOCC3)cc1)C2=O [Compound 9] |  |  |  |  |  |  |  |  |  |  | 0.035 | 0.045 | 
3 | Cc1c2cc(Cl)ccc2n2cc(Cc3ccccc3)[nH]c(=O)c12 [Compound 6] |  |  |  |  |  |  |  |  |  |  |  | 0.1 | GI50 (cancer cell lines; three cancer cell lines, read-out: GI50 vs three cancer cell lines): 0.5 µM
4 | Cc1c2n(c3ccc(Cl)cc13)C(=O)CN(CCc1ccc(N3CCOCC3)cc1)C2=O [Compound 7] |  |  |  |  |  |  |  |  |  |  | 1.1 | 0.15 | 
5 | CCc1c(C(=O)NCCc2ccc(N3CCOCC3)cc2)[nH]c2ccc(C)cc12 [Compound 12] |  |  |  |  |  |  |  |  |  |  | 0.037 |  | IC50 (CDK2): 0.016 µM
6 | c1nc(Nc2ccc(N3CCOCC3)cc2)cc(Oc2ccc3[nH]ccc3c2)n1 [Compound 4] |  |  |  |  |  |  |  |  |  |  |  |  | IC50 (EGFR [11]): 0.007 µM; IC50 (VEGFR-2 [12]): 1.2 µM
7 | CCOCc1c(C(=O)NCC(c2ccccc2)c2c(-c3ccccc3)[nH]c3ccccc23)[nH]c2ccc(Cl)cc12 (stereo not shown) [Compound Vh, 5-Chloro-3-(ethoxymethyl)-N-(2-phenyl-2-(2-phenyl-1H-indol-3-yl)ethyl)-1H-indole-2-carboxamide] | 210 to 212 | 0.085 ± 0.007 | 0.037 | 0.038 ± 0.003 | 0.038 ± 0.003 | 0.034 ± 0.003 | 0.089 ± 0.007 | 0.00325 ± 0.00025 | 90 | 0.036 ± 0.003 |  |  | Caspase-3 Conc (caspase-3): 460 ± 4 pg/mL; Caspase-3 Fold Change (caspase-3): 7
8 | Cc1c(C(=O)NCCc2ccc(N3CCCC3C)cc2)[nH]c2ccc(Cl)cc12 (stereo not shown) [Compound 10] |  |  |  |  |  |  |  |  |  |  | 0.95 |  | IC50 (CDK2): 0.013 µM
9 | O=C(NCC(c1ccccc1)c1c(-c2ccccc2)[nH]c2ccccc12)c1[nH]c2ccc(Cl)cc2c1-c1ccccc1 (stereo not shown) [Vf, 5-Chloro-3-phenyl-N-(2-phenyl-2-(2-phenyl-1H-indol-3-yl)ethyl)-1H-indole-2-carboxamide] | 131 to 133 | 0.103 ± 0.008 | 0.048 | 0.048 ± 0.004 | 0.049 ± 0.004 | 0.046 ± 0.004 | 0.107 ± 0.009 | 0.0025 ± 0.0002 | 91 | 0.048 ± 0.004 |  |  | 
